The text below walks through data of patent publication US20240245677A1, “SELECTED COMPOUNDS FOR TARGETED DEGRADATION OF BRD9” (C4 THERAPEUTICS, INC., priority 2021, published 2024).

The term half-life denotes the time in which the quantity being followed falls by half. Usually Emax stands for the size of the effect at its maximum, as opposed to the concentration needed.

Series [1] deals with cryopreserved hepatocytes from cynomolgus monkeys. Nature of the series: Monkey Hepatocyte Stability Assay. In kind it is in vitro ADME, cynomolgus monkey. The procedure:
(§1) The metabolic stability of Compound 1 was evaluated using cryopreserved hepatocytes from mice, rats, dogs, cynomolgus monkeys, and humans.
(§2) 50 μL of 1 mM intermediate solutions for each test compound was prepared by adding 5 μL of 10 mM stock solution to 45 μL of a 1:1 mixture of water and acetonitrile. A 2 μM working stocks for each test compound were prepared in incubation media, InvitroGRO™ KHB (Bio IVT, Westbury, NY, USA), by adding 2 μL of 1 mM intermediate stock to 998 μL of incubation media.
(§3) To thaw the hepatocytes, InvitroGRO™ HT thawing medium (BioIVT, Westbury, NY, USA) was prewarmed to 37° C., and 48 mL of warmed thawing medium was transferred to a sterile 50 mL conical tube. The hepatocyte vial was removed from the liquid nitrogen Dewar, and gently thawed in a water bath at 37° C. for 1-2 minutes, then the contents of the vial were emptied into a conical tube with prewarmed InvitroGRO HT medium. 1 mL of prewarmed InvitroGRO HT medium was added to each emptied hepatocyte vial to resuspend any remaining cells, and the contents were pipetted into the hepatocyte suspension. The tube containing the hepatocyte suspension was centrifuged at 50*g for 5 minutes. The supernatant was removed carefully, and the remaining pellet was resuspended by adding 1 mL of incubation media, InvitroGRO KHB, and gently shaking until there were no clumps.
(§4) Cell viability was determined using the trypan blue method. 25 μL of hepatocyte cell suspension was added to a trypan blue (TB) solution (containing 775 μL InvitroGRO KHB and 200 μL of Trypan Blue). Cell count was taken using a hemacytometer.
(§5) For mouse hepatocytes, 200 μL of hepatocytes (0.8×10^6 cells/mL) were added to the wells of a 48 well plate (Catalog No. 92048, TPP Techno Plastic Products AG, Trasadingen, Switzerland) and pre-incubated for 30 minutes at 37° C. For rat, dog, monkey, […], 200 μL of hepatocytes (2×10^6 cells/mL) were added to the wells of a 48 well plate (Catalog No. 92048, TPP Techno Plastic Products AG, Trasadingen, Switzerland) and pre-incubated for 30 minutes at 37° C.
(§6) For all species of hepatocytes, once the pre-incubation period was complete, 200 μL of 2 μM working stock of test compound was added to the wells of the plate, and the plate was vortexed on a Vibramax™ 100 (P/N 544-21200-00, Heidolph Instruments GmbH & Co. KG, Schwabach, Germany) at 500 rpm in a 37° C. CO2 incubator (Model No. 51026280, ThermoFisher Scientific, Waltham, MA, USA). At each time point of 0, 15, 30, 60, 90, and 120 minutes, 50 μL of incubation mixture was precipitated with 200 μL of acetonitrile containing internal standard.
(§7) At the end of the experiment, the samples were centrifuged at 4000 rpm for 10 minutes. […]

Series [2] in a line: Monkey Hepatocyte Stability Assay. In kind it is in vitro ADME, cynomolgus monkey. As to conditions: cryopreserved hepatocytes. The procedure: as §1, §2, §3, §4, §5, §6, §7
In series [3] the target is T1, SALL4 (Homo sapiens, UniProt Q96SW2+Q9UJQ4).
T1 construct: CRISPR-edited to endogenously express HiBiT tagged SALL4; host or cells: KELLY.2
Nature of the series: SALL4 HiBiT degradation assay in KELLY.2 cells. The class given is cell-based. An excerpt:
Nano-Glo® HiBiT Lytic Assay System was purchased from Promega (Catalog No. N3050, Madison, WI, USA). […] The HiBiT polypeptide tag was introduced into the C-terminus of the endogenous SALL4 locus by CRISPR-Cas9 to produce the modified KELLY.2 cell line. The HiBiT polypeptide allows reconstitution of NanoBiT enzyme following cell lysis and addition of the complementing LgBiT polypeptide that activates substrate to produce a luminescent signal that is directly proportional to the amount of HiBiT-tagged SALL4.
KELLY.2 cells were routinely sub-cultured to maintain cell density between 30-80% confluence, not to exceed 10 passages. Cells were washed with PBS, trypsinized for 5 minutes at 37° C., and resuspended in fresh growth media without phenol red. […] Cell concentration was adjusted with growth media without phenol red to 2×10^5 cells/mL.
30 nL DMSO was transferred to all control wells.
30 μL of media was dispensed to column 24 as background positive control (P). Plates were spun briefly at 1000 rpm and cells were incubated at 37° C., 5% CO2 for 6 hours. Final concentration of DMSO was 0.1% for all samples.
Cellular SALL4 protein level was determined based on quantification of HiBiT using Nano-Glo® HiBiT Lytic Assay System (Promega). […] Cells treated in the absence of the test compound (0.1% DMSO vehicle) were the negative control (N) and wells containing only media were the positive control (P).
Percent response of compound-treated samples (T) were calculated by normalizing to the DMSO treated negative (N) controls on the same microtiter plate after background (i.e., positive control) signal subtraction:
Curve fit and DC50 (concentration that degrades 50% SALL4) determination was performed by 4 parametric logistic fit analysis using software such as GraphPad Prism software (GraphPad Software, LLC, San Diego, CA, USA). The fit was performed through minimization of the root mean squared error between observed and calculated values of the four-parameter logistic equation using the simplex optimizer of the Apache Commons Math library. […] DC50 values were computed as the concentrations where the fitted curves cross the 50% response level. Averages and standard deviations were computed from replicates of the experiment.
Background: HiBiT is a short tag that completes a luciferase, so light tracks the accessible tagged protein.

A short description of series [4]: Crystallization at room temperature by slow evaporation. The class given is physicochemical. The procedure:
Based on approximate solubility results, about 10 mg of Compound 1 free form Pattern E was dissolved in suitable amount of solvents. Obtained suspensions or solutions were centrifuged. […] Solid residues were examined for their polymorphic form.

T1 sequence (Q9UJQ4 whole entry): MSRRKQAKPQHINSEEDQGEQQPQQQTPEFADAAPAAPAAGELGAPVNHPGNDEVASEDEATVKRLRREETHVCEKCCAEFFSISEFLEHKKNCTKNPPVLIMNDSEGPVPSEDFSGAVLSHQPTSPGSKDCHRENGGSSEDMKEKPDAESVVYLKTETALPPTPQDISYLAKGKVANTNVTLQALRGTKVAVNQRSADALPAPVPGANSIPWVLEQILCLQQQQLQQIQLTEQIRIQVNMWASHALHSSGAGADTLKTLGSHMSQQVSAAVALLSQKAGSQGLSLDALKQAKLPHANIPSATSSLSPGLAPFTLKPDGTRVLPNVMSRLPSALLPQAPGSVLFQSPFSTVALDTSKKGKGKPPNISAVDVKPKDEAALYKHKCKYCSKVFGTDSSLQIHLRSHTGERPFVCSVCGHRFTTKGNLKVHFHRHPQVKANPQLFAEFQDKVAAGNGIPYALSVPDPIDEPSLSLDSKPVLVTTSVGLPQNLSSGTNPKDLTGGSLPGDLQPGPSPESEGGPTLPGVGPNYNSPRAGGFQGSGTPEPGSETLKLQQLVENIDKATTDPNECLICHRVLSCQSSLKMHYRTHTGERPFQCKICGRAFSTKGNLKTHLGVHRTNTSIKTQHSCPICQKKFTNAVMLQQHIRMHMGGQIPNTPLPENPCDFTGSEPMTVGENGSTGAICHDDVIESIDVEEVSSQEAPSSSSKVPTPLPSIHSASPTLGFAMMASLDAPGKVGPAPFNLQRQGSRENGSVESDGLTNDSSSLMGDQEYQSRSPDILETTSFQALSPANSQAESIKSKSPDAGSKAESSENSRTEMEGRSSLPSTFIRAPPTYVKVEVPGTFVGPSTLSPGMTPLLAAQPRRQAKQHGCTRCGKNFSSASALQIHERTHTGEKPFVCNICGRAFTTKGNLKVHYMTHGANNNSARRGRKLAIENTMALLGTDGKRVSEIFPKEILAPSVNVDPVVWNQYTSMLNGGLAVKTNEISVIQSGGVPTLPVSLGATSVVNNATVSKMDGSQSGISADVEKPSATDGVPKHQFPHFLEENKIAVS
T1 sequence (Q96SW2 whole entry): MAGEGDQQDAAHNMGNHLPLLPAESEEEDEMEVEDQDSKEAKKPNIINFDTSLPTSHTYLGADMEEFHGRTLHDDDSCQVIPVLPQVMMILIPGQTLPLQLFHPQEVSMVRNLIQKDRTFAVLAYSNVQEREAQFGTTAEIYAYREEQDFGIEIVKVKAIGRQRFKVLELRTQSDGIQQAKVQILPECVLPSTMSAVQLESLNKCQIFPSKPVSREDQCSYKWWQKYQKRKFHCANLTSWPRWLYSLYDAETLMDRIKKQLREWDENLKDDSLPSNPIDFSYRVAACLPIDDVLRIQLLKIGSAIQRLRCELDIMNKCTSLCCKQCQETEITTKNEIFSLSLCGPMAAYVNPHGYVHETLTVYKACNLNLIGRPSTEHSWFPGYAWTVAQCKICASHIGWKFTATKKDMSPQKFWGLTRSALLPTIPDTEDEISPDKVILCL
T1 sequence (Q16531 2-1140 partner limits assumed): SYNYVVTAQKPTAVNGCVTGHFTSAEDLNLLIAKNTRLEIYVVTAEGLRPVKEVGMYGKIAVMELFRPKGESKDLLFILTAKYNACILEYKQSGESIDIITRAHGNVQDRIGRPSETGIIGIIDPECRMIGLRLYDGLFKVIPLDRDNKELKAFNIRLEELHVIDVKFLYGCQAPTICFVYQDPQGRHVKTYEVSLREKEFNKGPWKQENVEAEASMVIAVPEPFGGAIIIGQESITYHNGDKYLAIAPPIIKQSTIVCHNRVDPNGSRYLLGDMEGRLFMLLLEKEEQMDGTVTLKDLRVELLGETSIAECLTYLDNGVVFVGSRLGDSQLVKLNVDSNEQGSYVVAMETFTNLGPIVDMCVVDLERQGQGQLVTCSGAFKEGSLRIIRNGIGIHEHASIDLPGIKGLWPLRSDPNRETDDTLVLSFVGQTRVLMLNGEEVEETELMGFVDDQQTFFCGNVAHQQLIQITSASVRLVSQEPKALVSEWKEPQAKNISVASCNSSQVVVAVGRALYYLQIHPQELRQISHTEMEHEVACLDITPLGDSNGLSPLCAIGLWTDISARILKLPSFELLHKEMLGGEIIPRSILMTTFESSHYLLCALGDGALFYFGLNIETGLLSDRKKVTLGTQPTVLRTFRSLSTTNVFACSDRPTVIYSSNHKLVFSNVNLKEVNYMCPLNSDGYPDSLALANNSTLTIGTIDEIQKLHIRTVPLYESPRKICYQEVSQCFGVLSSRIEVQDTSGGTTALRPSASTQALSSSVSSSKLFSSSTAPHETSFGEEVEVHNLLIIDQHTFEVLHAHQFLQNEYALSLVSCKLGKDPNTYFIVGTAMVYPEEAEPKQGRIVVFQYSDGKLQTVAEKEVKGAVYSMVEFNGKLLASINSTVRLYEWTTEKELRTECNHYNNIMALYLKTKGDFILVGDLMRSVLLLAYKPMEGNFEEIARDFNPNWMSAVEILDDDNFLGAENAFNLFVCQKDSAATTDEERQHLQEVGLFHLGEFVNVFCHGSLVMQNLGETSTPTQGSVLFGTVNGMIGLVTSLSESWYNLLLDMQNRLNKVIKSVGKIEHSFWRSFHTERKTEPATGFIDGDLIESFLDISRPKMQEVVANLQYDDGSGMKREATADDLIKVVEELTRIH

`COc1cc(-c2cn(C)c(=O)c(C)c2C)cc(OC)c1CN1CC[C@H](N2CCN(c3ccc(N[C@H]4CCC(=O)NC4=O)cc3F)CC2)C(F)(F)C1` [Compound 1, (S)-3-((4-(4-((S)-1-(2,6-dimethoxy-4-(1,4,5-trimethyl-6-oxo-1,6-dihydropyridin-3-yl)benzyl)-3,3-difluoropiperidin-4-yl)piperazin-1-yl)-3-fluorophenyl)amino)-piperidine-2,6-dione]: the “CLhb scaled well stirred” value in series [1] turned out to be 24.7 mL/min/kg body wt. For the same molecule, the half-life at 1 µM in series [2] was 44.2 min. In addition, the hepatocyte CLint at 1 µM in series [2] (read-out: CL int cells) was found to be 15.7 µL/min/1e6 cells. In series [2] (read-out: CL int in vivo), the CLint scaled at 1 µM turned out to be 56.5 mL/min/kg. Also, the “% SALL4 Remaining Relative to Vehicle Control at 6 hr, Mean” value in series [3] (0.101 nM) was 103.8%; in series [3] (0.318 nM), 104.1%; in series [3] (1.01 nM), 104.1%; in series [3] (3.17 nM) it was 103.7%; in series [3] (10.0 nM), 106.5%; in series [3] (31.7 nM), 106.1%. Further, the “% SALL4 Remaining Relative to Vehicle Control at 6 hr, Mean” value is 104.2% in series [3] (100 nM); 105.0% in series [3] (317 nM); 104.0% in series [3] (1000 nM); 104.4% in series [3] (3161 nM); 96.6% in series [3] (9990 nM). Besides, the maximum response (Emax) in series [3] (SALL4-HiBiT, KELLY.2 cells, 6 hours, read-out: Mean Emax (%) ± SD) amounted to 98.9 ± 2.1%. Moreover, the “effect on degradation of SALL4” value in series [3] (concentrations up to 10 μM, 6 hours) is recorded as “no significant effect”. Moreover, the Comments entry in series [4] (slow evaporation at room temperature, 1,4-dioxane) is listed as “Gel-like sample”; in series [4] (slow evaporation at room temperature, 2-MeTHF), “Gel-like sample”; in series [4] (slow evaporation at room temperature, Ethanol), “Gel-like sample”; in series [4] (slow evaporation at room temperature, THF), “Jelly-like sample”. In addition, the XRPD entry is on record as “Pattern A” in series [4] (slow evaporation at room temperature, Acetonitrile) and “Pattern F” in series [4] (slow evaporation at room temperature, Ethyl acetate).
